Reference: ChEMBL document CHEMBL4312022, “Design, synthesis, and biological evaluation of ligustrazine - betulin amino-acid/dipeptide derivatives as anti-tumor agents” (Eur J Med Chem, 2020)
Activity calls are given as the source filed them. No cut-off for these calls is given here.

Key:
[1] = test system: HepG2; assay: Induction of cell cycle arrest in human HepG2 cells assessed as accumulation at S phase at 2 uM after 72 hrs by PI-staining based flow cytometry (reference value: 13.9%); assay type: functional
[2] = Toxicity in zebrafish embryos assessed as malformation rate at 4 uM after 72 hrs (reference value: 0%); design: species or system Danio rerio; settings: in vivo
[3] = test system: HepG2; assay: Induction of cell cycle arrest in human HepG2 cells assessed as accumulation at S phase at 8 uM after 72 hrs by PI-staining based flow cytometry (reference value: 13.9%); assay type: functional
[4] = test system: HepG2; assay: Antiproliferative activity against human HepG2 cells assessed as reduction in cell viability after 72 hrs by MTT assay; assay type: functional, cell-based; settings: HepG2, 72 h
[5] = test system: HepG2; assay: Induction of cell cycle arrest in human HepG2 cells assessed as accumulation at G2 phase at 2 uM after 72 hrs by PI-staining based flow cytometry (reference value: 19.2%); assay type: functional
[6] = test system: HepG2; assay: Induction of cell cycle arrest in human HepG2 cells assessed as accumulation at S phase at 4 uM after 72 hrs by PI-staining based flow cytometry (reference value: 13.9%); assay type: functional
[7] = test system: HepG2; assay: Induction of apoptosis in human HepG2 cells assessed as nuclear fragmentation at 2 to 8 uM after 72 hrs by DAPI-staining based fluorescence microscopic analysis; assay type: functional, cell-based
[8] = Toxicity in zebrafish embryos assessed as effect on morphological changes at 4 uM after 72 hrs; design: species or system Danio rerio; settings: in vivo
[9] = test system: HepG2; assay: Induction of apoptosis in human HepG2 cells assessed as early apoptotic cells at 12 uM after 24 hrs by AnnexinV-FITC/PI-staining based flow cytometry (reference value: 0.5%); assay type: functional
[10] = test system: HepG2; assay: Induction of apoptosis in human HepG2 cells assessed as increase in cell disruption up to 8 uM after 72 hrs by DAPI-staining based fluorescence microscopic analysis; assay type: functional
[11] = test system: HT-29; assay: Antiproliferative activity against human HT-29 cells assessed as reduction in cell viability after 72 hrs by MTT assay; assay type: functional, cell-based; settings: HT-29, 72 h
[12] = test system: HepG2; assay: Induction of morphological changes in human HepG2 cells assessed as cell fragmentation at 8 uM after 72 hrs by giemsa staining based inverted microscopic analysis; assay type: functional
[13] = test system: HepG2; assay: Induction of apoptosis in human HepG2 cells assessed as reduction in number of cells up to 8 uM after 72 hrs by DAPI-staining based fluorescence microscopic analysis; assay type: functional, cell-based
[14] = test system: HepG2; assay: Induction of apoptosis in human HepG2 cells assessed as early apoptotic cells at 8 uM after 24 hrs by AnnexinV-FITC/PI-staining based flow cytometry (reference value: 0.5%); assay type: functional
[15] = test system: HepG2; assay: Induction of cell cycle arrest in human HepG2 cells assessed as accumulation at G2 phase at 4 uM after 72 hrs by PI-staining based flow cytometry (reference value: 19.2%); assay type: functional
[16] = Toxicity in zebrafish embryos assessed as spinal cord bending at 4 uM after 72 hrs; design: species or system Danio rerio; settings: in vivo
[17] = test system: HepG2; assay: Induction of cell cycle arrest in human HepG2 cells assessed as accumulation at G2 phase at 8 uM after 72 hrs by PI-staining based flow cytometry (reference value: 19.2%); assay type: functional
[18] = test system: HepG2; assay: Induction of apoptosis in human HepG2 cells assessed as concentrated chromatin at 2 to 8 uM after 72 hrs by DAPI-staining based fluorescence microscopic analysis; assay type: functional, cell-based
[19] = Toxicity in zebrafish embryos assessed as mortality rate at 4 uM after 72 hrs (reference value: 3.33 +/- 4.71%); design: species or system Danio rerio; settings: in vivo
[20] = test system: BGC-823; assay: Antiproliferative activity against human BGC823 cells assessed as reduction in cell viability after 72 hrs by MTT assay; assay type: functional, cell-based; settings: BGC-823, 72 h
[21] = test system: HepG2; assay: Induction of apoptosis in human HepG2 cells assessed as early apoptotic cells at 4 uM after 24 hrs by AnnexinV-FITC/PI-staining based flow cytometry (reference value: 0.5%); assay type: functional
[22] = test system: HeLa; assay: Antiproliferative activity against human HeLa cells assessed as reduction in cell viability after 72 hrs by MTT assay; assay type: functional, cell-based
[23] = test system: HepG2; assay: Induction of apoptosis in human HepG2 cells assessed as late apoptotic cells at 8 uM after 24 hrs by AnnexinV-FITC/PI-staining based flow cytometry (reference value: 4.5%); assay type: functional
[24] = test system: MDCK; assay: Cytotoxicity against MDCK cells assessed as reduction in cell viability after 72 hrs by MTT assay; assay type: cell-based; settings: Canis lupus familiaris
[25] = Toxicity in zebrafish embryos assessed as body length at 4 uM after 72 hrs (reference value: 4165.80 +/- 64.98 micrometer); design: species or system Danio rerio; settings: in vivo
[26] = test system: HepG2; assay: Induction of cell cycle arrest in human HepG2 cells assessed as accumulation at G1 phase at 4 uM after 72 hrs by PI-staining based flow cytometry (reference value: 66.9%); assay type: functional
[27] = test system: HepG2; assay: Induction of apoptosis in human HepG2 cells assessed as reduction in number of normal cell morphology at 2 to 8 uM after 72 hrs by giemsa staining based inverted microscopic analysis; assay type: functional
[28] = test system: HepG2; assay: Induction of cell cycle arrest in human HepG2 cells assessed as accumulation at G1 phase at 2 uM after 72 hrs by PI-staining based flow cytometry (reference value: 66.9%); assay type: functional
[29] = test system: HepG2; assay: Induction of apoptosis in human HepG2 cells assessed as late apoptotic cells at 4 uM after 24 hrs by AnnexinV-FITC/PI-staining based flow cytometry (reference value: 4.5%); assay type: functional
[30] = test system: HepG2; assay: Induction of apoptosis in human HepG2 cells assessed as late apoptotic cells at 12 uM after 24 hrs by AnnexinV-FITC/PI-staining based flow cytometry (reference value: 4.5%); assay type: functional
[31] = test system: HepG2; assay: Induction of cell cycle arrest in human HepG2 cells assessed as accumulation at G1 phase at 8 uM after 72 hrs by PI-staining based flow cytometry (reference value: 66.9%); assay type: functional
[32] = Selectivity index, ratio of IC50 for MDCK cells to IC50 for human HepG2 cells
[33] = test system: HepG2; assay: Induction of morphological changes in human HepG2 cells assessed as cell pyknosis at 8 uM after 72 hrs by giemsa staining based inverted microscopic analysis; assay type: functional

C=C(C)[C@@H]1CC[C@]2(COC(=O)c3nc(C)c(C)nc3C)CC[C@]3(C)[C@H](CC[C@@H]4[C@@]5(C)CC[C@H](OC(=O)CN)C(C)(C)[C@@H]5CC[C@]43C)[C@@H]12
Activity [1]: 7.3%
Activity [2]: 0%
Activity [3]: 4.9%
IC50 [4]: 4.07 µM
Activity [5]: 15.8%
Activity [6]: 5.6%
Activity [7]: Active
Activity [8]: Non-Toxic
Activity [9]: 35.4%
Activity [10]: Active
IC50 [11]: 6.21 µM
Activity [12]: Active
Activity [13]: Active
Activity [14]: 14.2%
Activity [15]: 14.9%
Activity [16]: Non-Toxic
Activity [17]: 13.6%
Activity [18]: Active
mortality at 72 h, 4 µM [19]: 8.33%
IC50 [20]: 4.24 µM
Activity [21]: 5.5%
IC50 [22]: 4.91 µM
Activity [23]: 19.2%
IC50 [24]: 16.1 µM
Activity [25]: 4140.09 um
Activity [26]: 79.6%
Activity [27]: Active
Activity [28]: 76.8%
Activity [29]: 15.4%
Activity [30]: 21.4%
Activity [31]: 81.5%
Ratio IC50 [32]: 3.91
Activity [33]: Active
